Experimental data as given in patent US12611438B2, “Antiviral composition comprising a nucleolin-binding peptide” (ANYGEN CO., LTD., priority 2021, dated 2026).
Where two headings read alike, the source gives them in different places.

Tests used:
SARS-COV-2 = details: for Lung, Alveolar wall thickening: Mild, incidence / Lung, Alveolar wall thickening: Minimal, incidence / Lung, Alveolar wall thickening: Moderate, incidence / Lung, Alveolar wall thickening: Normal, incidence / Lung, Alveolar wall thickening: Severe, incidence / Lung, Hemorrhage: Mild, incidence / Lung, Hemorrhage: Minimal, incidence / Lung, Hemorrhage: Moderate, incidence / Lung, Hemorrhage: Normal, incidence / Lung, Hemorrhage: Severe, incidence / Lung, Hyaline membrane: Mild, incidence / Lung, Hyaline membrane: Minimal, incidence / Lung, Hyaline membrane: Moderate, incidence / Lung, Hyaline membrane: Normal, incidence / Lung, Hyaline membrane: Severe, incidence / Lung, Inflammatory cell, intestinal: Mild, incidence / Lung, Inflammatory cell, intestinal: Minimal, incidence / Lung, Inflammatory cell, intestinal: Moderate, incidence / Lung, Inflammatory cell, intestinal: Normal, incidence / Lung, Inflammatory cell, intestinal: Severe, incidence / Lung, Neutrophilic/lymphocytic cell, alveolar: Mild, incidence / Lung, Neutrophilic/lymphocytic cell, alveolar: Minimal, incidence / Lung, Neutrophilic/lymphocytic cell, alveolar: Moderate, incidence / Lung, Neutrophilic/lymphocytic cell, alveolar: Normal, incidence / Lung, Proteinaceous debris: Mild, incidence / Lung, Proteinaceous debris: Minimal, incidence / Lung, Proteinaceous debris: Moderate, incidence / Lung, Proteinaceous debris: Normal, incidence / Lung, Proteinaceous debris: Severe, incidence: 5 animals
Procedure: Syrian hamsters (Female, 11 weeks, Raon Bio Co., Ltd.) were infected with SARS-COV-2 (2×10^5 pfu/mL) through intranasal irrigation.
Body weight was measured on the day of infection, the second day after infection, and the fourth day after infection.
Autopsy was measured on the fourth day after infection.

[1] = system: A549, MDCK, Vero E6, MA104, MARC-145, and LLC-PK cells; details: 10 μM
influenza A virus = type: in vivo, C57BL/6 mice; details: 0.04, 0.2, and 1.00 mg/kg i.p. once a day for 5 days, observed 16 days
in vitro [2] = details: African green monkey
in vitro [3] = type: cell-based
Procedure: In order to determine the half maximal cytotoxic concentration (CC50) of AGM-330, confluent A549, MDCK, Vero E6, MA104, MARC-145, and LLC-PK cells grown in 96-well plates were treated with dilutions of NCL-targeting peptide ligands (AGM-330d-mCPP, AGM-330t-mCPP) prepared from a low concentration to […], followed by incubation for 24 hours. After removing each culture medium, 200 μL of a 3-(4,5-dimethylthiazol-2-yl)-2,5-diphenyl tetrazolium bromide (MTT) solution was added thereto, followed by incubation in a 5% CO2 incubator at 36° C. for 4 hours. Then, 150 μL of a DMSO solution was added to each well and then incubated at 20° C. Then, the optical density (OD) was measured at a wavelength of 570 nm with an enzyme-linked immunosorbent assay (ELISA) reader (Table 6).

CC[C@H](C)[C@H](NC(=O)[C@H](CCCNC(=N)N)NC(=O)CCN1C(=O)CC(SC[C@H](NC(=O)[C@H](CCCCNC(=O)CCOCCOCCOCCOCCOCCOCCNC(=O)[C@H](CCCCN)NC(=O)[C@H](CC(C)C)NC(=O)[C@H](Cc2ccc(O)cc2)NC(=O)[C@@H](NC(=O)[C@H](CCSC)NC(=O)[C@H](C)NC(=O)CNC(=O)[C@H](Cc2c[nH]cn2)NC(=O)[C@@H](N)CCCNC(=N)N)C(C)C)NC(=O)CCOCCOCCOCCOCCOCCOCCNC(=O)[C@H](CCCCN)NC(=O)[C@H](CC(C)C)NC(=O)[C@H](Cc2ccc(O)cc2)NC(=O)[C@@H](NC(=O)[C@H](CCSC)NC(=O)[C@H](C)NC(=O)CNC(=O)[C@H](Cc2c[nH]cn2)NC(=O)[C@@H](N)CCCNC(=N)N)C(C)C)C(=O)O)C1=O)C(=O)N[C@@H](CCSC)C(=O)N[C@@H](CCCNC(=N)N)C(=O)N[C@H](C(=O)N[C@@H](CC(C)C)C(=O)N[C@@H](CCCNC(=N)N)C(=O)N[C@H](C(=O)N[C@@H](CC(C)C)C(=O)N[C@@H](CCCCN)C(=O)N[C@@H](CC(C)C)C(=O)N[C@@H](C)C(=O)N[C@@H](CCCNC(=N)N)C(=O)O)[C@@H](C)CC)[C@@H](C)CC (stereo partly shown) [AGM-330d-mCPP]
lung histopathological lesions versus virus control group (SARS-COV-2; 6 mg/kg): significantly reduced | macroscopic lung changes versus virus control group (SARS-COV-2; 6 mg/kg, autopsy fourth day after infection): significantly alleviated | mortality (SARS-COV-2; 0.2, 2, 6 mg/kg i.p., eight times for four days, observed 5 days after infection): no dead animals occurred | body weight change versus virus control group (SARS-COV-2; 0.2, 2, 6 mg/kg i.p., day of infection, day 2, day 4): No significant weight change | Lung, Alveolar wall thickening: Mild, incidence (SARS-COV-2; AGM-1: 0.2 mg/kg): 3 | Lung, Alveolar wall thickening: Minimal, incidence (SARS-COV-2; AGM-1: 0.2 mg/kg): 0 | Lung, Alveolar wall thickening: Moderate, incidence (SARS-COV-2; AGM-1: 0.2 mg/kg): 2 | Lung, Alveolar wall thickening: Normal, incidence (SARS-COV-2; AGM-1: 0.2 mg/kg): 0 | Lung, Alveolar wall thickening: Severe, incidence (SARS-COV-2; AGM-1: 0.2 mg/kg): 0 | Lung, Hemorrhage: Mild, incidence (SARS-COV-2; AGM-1: 0.2 mg/kg): 2 | Lung, Hemorrhage: Minimal, incidence (SARS-COV-2; AGM-1: 0.2 mg/kg): 3 | Lung, Hemorrhage: Moderate, incidence (SARS-COV-2; AGM-1: 0.2 mg/kg): 0 | Lung, Hemorrhage: Normal, incidence (SARS-COV-2; AGM-1: 0.2 mg/kg): 0 | Lung, Hemorrhage: Severe, incidence (SARS-COV-2; AGM-1: 0.2 mg/kg): 0 | Lung, Hyaline membrane: Mild, incidence (SARS-COV-2; AGM-1: 0.2 mg/kg): 3 | Lung, Hyaline membrane: Minimal, incidence (SARS-COV-2; AGM-1: 0.2 mg/kg): 0 | Lung, Hyaline membrane: Moderate, incidence (SARS-COV-2; AGM-1: 0.2 mg/kg): 2 | Lung, Hyaline membrane: Normal, incidence (SARS-COV-2; AGM-1: 0.2 mg/kg): 0 | Lung, Hyaline membrane: Severe, incidence (SARS-COV-2; AGM-1: 0.2 mg/kg): 0 | Lung, Inflammatory cell, intestinal: Mild, incidence (SARS-COV-2; AGM-1: 0.2 mg/kg): 2 | Lung, Inflammatory cell, intestinal: Minimal, incidence (SARS-COV-2; AGM-1: 0.2 mg/kg): 0 | Lung, Inflammatory cell, intestinal: Moderate, incidence (SARS-COV-2; AGM-1: 0.2 mg/kg): 3 | Lung, Inflammatory cell, intestinal: Normal, incidence (SARS-COV-2; AGM-1: 0.2 mg/kg): 0 | Lung, Inflammatory cell, intestinal: Severe, incidence (SARS-COV-2; AGM-1: 0.2 mg/kg): 0 | Lung, Neutrophilic/lymphocytic cell, alveolar: Mild, incidence (SARS-COV-2; AGM-1: 0.2 mg/kg): 3 | Lung, Neutrophilic/lymphocytic cell, alveolar: Minimal, incidence (SARS-COV-2; AGM-1: 0.2 mg/kg): 2 | Lung, Neutrophilic/lymphocytic cell, alveolar: Moderate, incidence (SARS-COV-2; AGM-1: 0.2 mg/kg): 0 | Lung, Neutrophilic/lymphocytic cell, alveolar: Normal, incidence (SARS-COV-2; AGM-1: 0.2 mg/kg): 0 | Lung, Proteinaceous debris: Mild, incidence (SARS-COV-2; AGM-1: 0.2 mg/kg): 2 | Lung, Proteinaceous debris: Minimal, incidence (SARS-COV-2; AGM-1: 0.2 mg/kg): 3 | Lung, Proteinaceous debris: Moderate, incidence (SARS-COV-2; AGM-1: 0.2 mg/kg): 0 | Lung, Proteinaceous debris: Normal, incidence (SARS-COV-2; AGM-1: 0.2 mg/kg): 0 | Lung, Proteinaceous debris: Severe, incidence (SARS-COV-2; AGM-1: 0.2 mg/kg): 0 | Lung, Alveolar wall thickening: Mild, incidence (SARS-COV-2; AGM-2: 2 mg/kg): 3 | Lung, Alveolar wall thickening: Minimal, incidence (SARS-COV-2; AGM-2: 2 mg/kg): 0 | Lung, Alveolar wall thickening: Moderate, incidence (SARS-COV-2; AGM-2: 2 mg/kg): 2 | Lung, Alveolar wall thickening: Normal, incidence (SARS-COV-2; AGM-2: 2 mg/kg): 0 | Lung, Alveolar wall thickening: Severe, incidence (SARS-COV-2; AGM-2: 2 mg/kg): 0 | Lung, Hemorrhage: Mild, incidence (SARS-COV-2; AGM-2: 2 mg/kg): 3 | Lung, Hemorrhage: Minimal, incidence (SARS-COV-2; AGM-2: 2 mg/kg): 2 | Lung, Hemorrhage: Moderate, incidence (SARS-COV-2; AGM-2: 2 mg/kg): 0 | Lung, Hemorrhage: Normal, incidence (SARS-COV-2; AGM-2: 2 mg/kg): 0 | Lung, Hemorrhage: Severe, incidence (SARS-COV-2; AGM-2: 2 mg/kg): 0 | Lung, Hyaline membrane: Mild, incidence (SARS-COV-2; AGM-2: 2 mg/kg): 3 | Lung, Hyaline membrane: Minimal, incidence (SARS-COV-2; AGM-2: 2 mg/kg): 0 | Lung, Hyaline membrane: Moderate, incidence (SARS-COV-2; AGM-2: 2 mg/kg): 2 | Lung, Hyaline membrane: Normal, incidence (SARS-COV-2; AGM-2: 2 mg/kg): 0 | Lung, Hyaline membrane: Severe, incidence (SARS-COV-2; AGM-2: 2 mg/kg): 0 | Lung, Inflammatory cell, intestinal: Mild, incidence (SARS-COV-2; AGM-2: 2 mg/kg): 1 | Lung, Inflammatory cell, intestinal: Minimal, incidence (SARS-COV-2; AGM-2: 2 mg/kg): 0 | Lung, Inflammatory cell, intestinal: Moderate, incidence (SARS-COV-2; AGM-2: 2 mg/kg): 3 | Lung, Inflammatory cell, intestinal: Normal, incidence (SARS-COV-2; AGM-2: 2 mg/kg): 0 | Lung, Inflammatory cell, intestinal: Severe, incidence (SARS-COV-2; AGM-2: 2 mg/kg): 1 | Lung, Neutrophilic/lymphocytic cell, alveolar: Mild, incidence (SARS-COV-2; AGM-2: 2 mg/kg): 3 | Lung, Neutrophilic/lymphocytic cell, alveolar: Minimal, incidence (SARS-COV-2; AGM-2: 2 mg/kg): 2 | Lung, Neutrophilic/lymphocytic cell, alveolar: Moderate, incidence (SARS-COV-2; AGM-2: 2 mg/kg): 0 | Lung, Neutrophilic/lymphocytic cell, alveolar: Normal, incidence (SARS-COV-2; AGM-2: 2 mg/kg): 0 | Lung, Proteinaceous debris: Mild, incidence (SARS-COV-2; AGM-2: 2 mg/kg): 2 | Lung, Proteinaceous debris: Minimal, incidence (SARS-COV-2; AGM-2: 2 mg/kg): 3 | Lung, Proteinaceous debris: Moderate, incidence (SARS-COV-2; AGM-2: 2 mg/kg): 0 | Lung, Proteinaceous debris: Normal, incidence (SARS-COV-2; AGM-2: 2 mg/kg): 0 | Lung, Proteinaceous debris: Severe, incidence (SARS-COV-2; AGM-2: 2 mg/kg): 0 | Lung, Alveolar wall thickening: Mild, incidence (SARS-COV-2; AGM-3: 6 mg/kg): 3 | Lung, Alveolar wall thickening: Minimal, incidence (SARS-COV-2; AGM-3: 6 mg/kg): 2 | Lung, Alveolar wall thickening: Moderate, incidence (SARS-COV-2; AGM-3: 6 mg/kg): 0 | Lung, Alveolar wall thickening: Normal, incidence (SARS-COV-2; AGM-3: 6 mg/kg): 0 | Lung, Alveolar wall thickening: Severe, incidence (SARS-COV-2; AGM-3: 6 mg/kg): 0 | Lung, Hemorrhage: Mild, incidence (SARS-COV-2; AGM-3: 6 mg/kg): 0 | Lung, Hemorrhage: Minimal, incidence (SARS-COV-2; AGM-3: 6 mg/kg): 5 | Lung, Hemorrhage: Moderate, incidence (SARS-COV-2; AGM-3: 6 mg/kg): 0 | Lung, Hemorrhage: Normal, incidence (SARS-COV-2; AGM-3: 6 mg/kg): 0 | Lung, Hemorrhage: Severe, incidence (SARS-COV-2; AGM-3: 6 mg/kg): 0 | Lung, Hyaline membrane: Mild, incidence (SARS-COV-2; AGM-3: 6 mg/kg): 1 | Lung, Hyaline membrane: Minimal, incidence (SARS-COV-2; AGM-3: 6 mg/kg): 4 | Lung, Hyaline membrane: Moderate, incidence (SARS-COV-2; AGM-3: 6 mg/kg): 0 | Lung, Hyaline membrane: Normal, incidence (SARS-COV-2; AGM-3: 6 mg/kg): 0 | Lung, Hyaline membrane: Severe, incidence (SARS-COV-2; AGM-3: 6 mg/kg): 0 | Lung, Inflammatory cell, intestinal: Mild, incidence (SARS-COV-2; AGM-3: 6 mg/kg): 3 | Lung, Inflammatory cell, intestinal: Minimal, incidence (SARS-COV-2; AGM-3: 6 mg/kg): 2 | Lung, Inflammatory cell, intestinal: Moderate, incidence (SARS-COV-2; AGM-3: 6 mg/kg): 0 | Lung, Inflammatory cell, intestinal: Normal, incidence (SARS-COV-2; AGM-3: 6 mg/kg): 0 | Lung, Inflammatory cell, intestinal: Severe, incidence (SARS-COV-2; AGM-3: 6 mg/kg): 0 | Lung, Neutrophilic/lymphocytic cell, alveolar: Mild, incidence (SARS-COV-2; AGM-3: 6 mg/kg): 0 | Lung, Neutrophilic/lymphocytic cell, alveolar: Minimal, incidence (SARS-COV-2; AGM-3: 6 mg/kg): 5 | Lung, Neutrophilic/lymphocytic cell, alveolar: Moderate, incidence (SARS-COV-2; AGM-3: 6 mg/kg): 0 | Lung, Neutrophilic/lymphocytic cell, alveolar: Normal, incidence (SARS-COV-2; AGM-3: 6 mg/kg): 0 | Lung, Proteinaceous debris: Mild, incidence (SARS-COV-2; AGM-3: 6 mg/kg): 1 | Lung, Proteinaceous debris: Minimal, incidence (SARS-COV-2; AGM-3: 6 mg/kg): 4 | Lung, Proteinaceous debris: Moderate, incidence (SARS-COV-2; AGM-3: 6 mg/kg): 0 | Lung, Proteinaceous debris: Normal, incidence (SARS-COV-2; AGM-3: 6 mg/kg): 0 | Lung, Proteinaceous debris: Severe, incidence (SARS-COV-2; AGM-3: 6 mg/kg): 0 | cytotoxicity at high concentration [1]: did not exhibit significant cytotoxicity | survival rate (influenza A virus): significantly improved survival rate | CC50 at 24 h (in vitro [2]): > 20 µM | CC50 at 24 h (in vitro [3]; African green monkey, MA-104, MTT): 99.9 µM | CC50 at 24 h (in vitro [3]; African green monkey, MARC-145, MTT): 98 µM | CC50 at 24 h (in vitro [3]; African green monkey, Vero E6, MTT): 108 µM | CC50 at 24 h (in vitro [3]; human, A549, MTT): 102 µM | CC50 at 24 h (in vitro [3]; human, HRT-18, MTT): 89.5 µM | CC50 at 24 h (in vitro [3]; pig, LLC-PK, MTT): 101 µM
